According to patent publication US7319015B2, “Methods and compositions for using alveolar macrophage phospholipase A2” (The Regents of The University of Michigan, priority 2004, dated 2008):
Several values for one entry are separate records, joined by “and”; a condition that tells them apart may be missing. Equal entries are not always repeated. Entries after “also recorded” stand apart in the source; their conditions may differ. Where two headings read alike, the source gives them in different places.

Experiments:
[1] = target: T1, LPLA2 (Canis lupus familiaris, UniProt Q6XPZ3); experiment: LPLA2 (transacylase/phospholipase A2) activity assay in MDCK cell homogenates with cationic amphiphilic drugs; format: biochemical; conditions: FIG. 1A; for inhibition of LPLA2 transacylase and phospholipase A2 activity (in words): enzyme assay for LPLA2 activity
T1 construct: endogenous in cells; host or cells: MDCK cell homogenate
T1 sequence (Q6XPZ3 32-408): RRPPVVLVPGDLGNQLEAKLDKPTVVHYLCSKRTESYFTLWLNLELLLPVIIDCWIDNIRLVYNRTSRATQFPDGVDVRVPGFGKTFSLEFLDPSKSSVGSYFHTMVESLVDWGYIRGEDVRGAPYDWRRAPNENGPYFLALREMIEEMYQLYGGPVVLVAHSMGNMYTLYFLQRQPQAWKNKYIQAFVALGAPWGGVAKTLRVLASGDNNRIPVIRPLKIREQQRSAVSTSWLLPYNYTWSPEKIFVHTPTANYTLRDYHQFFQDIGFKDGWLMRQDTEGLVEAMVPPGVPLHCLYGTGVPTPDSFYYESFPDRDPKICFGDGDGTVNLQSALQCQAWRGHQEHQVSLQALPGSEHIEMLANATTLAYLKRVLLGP
Procedure: (§1) Phospholipids, DOPC and PE, and N-acetylsphingosine (NAS) were used in the assay system as a donor and an acceptor, respectively, of an acyl group. The transacylase activity was determined by analysis of 1-O-acyl-N-acetylsphingosine formation rate. The reaction mixture consisted of 45 mM sodium citrate (pH 4.5), 10 μg/ml bovine serum albumin, 40 μM NAS incorporated into phospholipid liposomes (DOPC/PE/dicetyl phosphate/NAS (5:2:1:2 in molar ratio)) and soluble fraction (0.7-10 μg) in a total volume of 500 μl. The reaction was initiated by adding the soluble fraction, kept for 5-60 min at 37° C. and terminated by adding 3 ml of chloroform/methanol (2:1) plus 0.3 ml of 0.9% (w/v) NaCl. The mixture was centrifuged for 5 min at room temperature. The resultant lower layer was transferred into another glass tube and dried down under a stream of nitrogen gas. The dried lipid dissolved in 40 μl of chloroform/methanol (2:1) was applied on an HPTLC plate and developed in a solvent system consisting of chloroform/acetic acid (9:1). The plated was dried down and soaked in 8% (w/v) CuSO4, 5H2O, 6.8% (v/v) H3PO4, 32% (v/v) methanol. The uniformly wet plate was briefly dried down by a hair dryer and charred for 15 min in a 150° C. oven. The plate was scanned and the amount of the reaction products was estimated by NIH-image 1.62.
Res., 35:1232-1240, 1994]. PDMP and its related homologs contain a hydrophilic domain with a substituted nitrogen and a hydrophobic aromatic group, functional groups that are typical of CADs in general.

[2] = target: LPLA2 (Rattus norvegicus, UniProt Q675A5); conditions: rat AM soluble fraction 2.42 μg protein/ml, citrate buffer pH 4.5, 40 μM NAS, different concentrations of MJ33
LPLA2 (Rattus norvegicus, UniProt Q675A5), sequence (Q675A5 34-413): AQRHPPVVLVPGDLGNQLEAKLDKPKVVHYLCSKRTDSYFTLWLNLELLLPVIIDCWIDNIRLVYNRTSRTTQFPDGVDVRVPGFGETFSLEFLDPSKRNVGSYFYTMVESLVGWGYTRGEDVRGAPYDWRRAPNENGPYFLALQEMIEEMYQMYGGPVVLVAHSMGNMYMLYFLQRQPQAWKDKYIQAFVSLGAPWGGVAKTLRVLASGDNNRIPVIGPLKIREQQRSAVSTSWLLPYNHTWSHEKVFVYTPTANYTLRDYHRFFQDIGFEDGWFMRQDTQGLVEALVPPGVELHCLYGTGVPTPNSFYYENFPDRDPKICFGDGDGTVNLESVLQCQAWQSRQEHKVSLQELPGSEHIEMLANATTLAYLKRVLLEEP
Procedure: as §1, with “The uniformly wet plate was briefly dried down by a hair dryer and charred for 15 min in a 150° C. oven. The plate was scanned and the amount of the reaction products was estimated by NIH-image 1.62.” left out
(§2) In the studies the effect of MJ33 on LPLA2 transacylation activity in rat alveolar macrophages and c-myc-tagged mouse LPLA2 transfected COS 7 cells was also determined. […] The enzyme activity was determined as described in the Example 1.

[3] = target: c-myc-tagged mouse LPLA2 (Mus musculus, UniProt Q8VEB4); conditions: soluble fraction of LPLA2 transfected COS 7 cells 2.26 μg protein/ml, citrate buffer pH 4.5, 40 μM NAS
c-myc-tagged mouse LPLA2, sequence (Q8VEB4 34-412): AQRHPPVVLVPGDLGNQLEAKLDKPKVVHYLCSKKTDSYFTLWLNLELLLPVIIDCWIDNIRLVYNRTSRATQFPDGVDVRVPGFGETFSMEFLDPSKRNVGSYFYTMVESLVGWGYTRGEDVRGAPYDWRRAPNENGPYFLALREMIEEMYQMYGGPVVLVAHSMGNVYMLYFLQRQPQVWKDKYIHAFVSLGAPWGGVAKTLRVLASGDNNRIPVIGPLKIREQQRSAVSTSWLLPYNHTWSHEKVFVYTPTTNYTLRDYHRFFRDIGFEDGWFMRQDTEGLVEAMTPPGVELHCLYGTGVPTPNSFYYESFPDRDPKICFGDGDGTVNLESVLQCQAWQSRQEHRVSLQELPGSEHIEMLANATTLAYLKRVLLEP
Procedure: as §1, with “The uniformly wet plate was briefly dried down by a hair dryer and charred for 15 min in a 150° C. oven. The plate was scanned and the amount of the reaction products was estimated by NIH-image 1.62.” left out
as §2

[4] = system: surfactant phospholipid catabolism; conditions: rats treated with MJ33 (Fisher et al. 2001); cited from earlier work
[5] = system: dipalmitoyl-phosphatidylcholine degradation; conditions: murine lung, previously demonstrated; cited from earlier work
[6] = system: MDCK cells
[7] = system: MDCK cells; conditions: MDCK cells treated at the IC50 for transacylase inhibition, 7 days, FIG. 2
[8] = system: CHO cells; conditions: CHO cells (Rosenwald and Pagano 1994); cited from earlier work
[9] = target: T2, 1-O-acylceramide synthase (LPLA2) (Bos taurus, UniProt Q8WMP9); conditions: initial characterization of the enzyme, cited from earlier work
T2 sequence (Q8WMP9 30-407): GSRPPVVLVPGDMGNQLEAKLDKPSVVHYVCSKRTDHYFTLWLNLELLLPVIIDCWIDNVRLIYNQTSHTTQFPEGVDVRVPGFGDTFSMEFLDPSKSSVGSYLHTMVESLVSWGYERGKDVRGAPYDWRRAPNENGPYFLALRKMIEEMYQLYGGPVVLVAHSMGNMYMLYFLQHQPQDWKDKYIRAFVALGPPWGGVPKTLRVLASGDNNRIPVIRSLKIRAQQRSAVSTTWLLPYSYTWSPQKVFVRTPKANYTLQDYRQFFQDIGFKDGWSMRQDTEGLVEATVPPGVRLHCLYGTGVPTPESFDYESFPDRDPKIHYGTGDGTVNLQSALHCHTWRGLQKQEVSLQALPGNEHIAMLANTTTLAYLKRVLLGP

CCCCc1oc2ccccc2c1C(=O)c1cc(I)c(OCCN(CC)CC)c(I)c1 [Amiodarone, amiodarone]
inhibition of LPLA2 transacylase and phospholipase A2 activity (in words) [1]: comparable to but greater than PDMP

CCCCCCCCCCCCCCCCOCC(COCC(F)(F)F)OP(=O)(O)OC (centres unmarked) [MJ33]
inhibition of transacylase activity [2]: concentration dependent inhibition | inhibition of transacylase activity [3]: comparable response | inhibition of surfactant phospholipid catabolism [4]: 40 to 50% | block of dipalmitoyl-phosphatidylcholine degradation [5]: block the majority

CCCCCCCCCC(=O)N[C@H](CN1CCOCC1)[C@H](O)c1ccccc1 [PDMP, D-threo-1phenyl-2-decanoylamino-3-morphilino-propanol]
IC50 ([1]; enzyme assay for LPLA2 (transacylase) activity, read-out: IC50 / half maximal inhibition of LPLA2 activity): 30 µM and 50 µM | inhibition of LPLA2 transacylase and phospholipase A2 activity (in words) [1]: potently inhibited | total phospholipid content ([6]; MDCK cells incubated for up to 7 days, 15 μM, FIG. 1B): Modest, but significant increases | content of phosphatidylethanolamine and phosphatidylcholine ([6]; MDCK cells, time-dependent changes, FIG. 1C/1D): increased | lysosomal phospholipid inclusions by electron microscopy [7]: obvious lysosomal phospholipid inclusions | induction of lysosomal lamellar inclusions [8]: induced lysosomal lamellar inclusions

O=C1O/C(=C/Br)CCC1c1cccc2ccccc12 (centres unmarked) [bromoenollactone]
inhibition of enzyme activity [9]: did not inhibit | inhibition of enzyme activity ([9]; listed as bromoenol lactone): insensitive

CCCCC/C=C\C/C=C\C/C=C\C/C=C\CCCC(=O)C(F)(F)F [nonadecyltetraenyl trifluoromethyl ketone]
inhibition of enzyme activity [9]: insensitive; also recorded: did not inhibit
